Results on ten compounds are retold here after patent US8299048B2, “Hexahydrocyclopentyl[f]indazole sulfonamides and derivatives thereof as selective glucocorticoid receptor modulators” (Merck Sharp & Dohme Corp., priority 2008, dated 2012).

For experiment [1], the target named is T1, human GR (Homo sapiens, UniProt P04150).
T1 sequence (P04150 1-777): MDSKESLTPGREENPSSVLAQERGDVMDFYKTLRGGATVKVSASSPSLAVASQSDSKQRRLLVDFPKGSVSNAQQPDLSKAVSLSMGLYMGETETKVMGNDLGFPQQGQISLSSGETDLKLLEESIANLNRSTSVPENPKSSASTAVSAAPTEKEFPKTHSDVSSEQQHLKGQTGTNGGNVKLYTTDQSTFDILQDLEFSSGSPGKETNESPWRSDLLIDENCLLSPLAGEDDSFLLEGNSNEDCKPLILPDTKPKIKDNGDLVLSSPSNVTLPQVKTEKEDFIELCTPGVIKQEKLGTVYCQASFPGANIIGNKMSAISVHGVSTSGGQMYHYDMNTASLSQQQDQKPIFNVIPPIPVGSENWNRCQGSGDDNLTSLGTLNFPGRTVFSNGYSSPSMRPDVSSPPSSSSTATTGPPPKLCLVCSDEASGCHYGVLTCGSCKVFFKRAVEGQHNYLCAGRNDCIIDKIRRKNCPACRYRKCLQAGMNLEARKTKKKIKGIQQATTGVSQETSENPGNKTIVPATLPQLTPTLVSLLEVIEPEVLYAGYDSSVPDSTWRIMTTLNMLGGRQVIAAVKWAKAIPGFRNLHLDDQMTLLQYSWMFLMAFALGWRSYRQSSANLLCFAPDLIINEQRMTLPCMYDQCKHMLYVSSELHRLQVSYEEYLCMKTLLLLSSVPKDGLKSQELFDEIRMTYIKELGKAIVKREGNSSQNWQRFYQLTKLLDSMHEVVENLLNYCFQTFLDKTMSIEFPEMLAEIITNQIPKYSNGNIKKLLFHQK
In words: Trans-Activation Modulation of Glucocorticoid Receptor (GRAMMER), MMTV-LUC reporter, agonist mode. Format: cell-based. More on the design: endogenous in cells. The conditions noted are these: for Emax: A549, A549 cells, maximum activity, read-out: Transactivation A549 Cells GRAMMER Emax; for EC50: A549 cells, inflection point, read-out: Transactivation A549 Cells GRAMMER IP. Put shortly: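 Readout is luciferase from a modified MMTV LTR promoter after 24 h compound exposure alongside 10 nM dexamethasone (100% activity reference), DMSO ≤1%.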

The target of experiment [2] is T1, human GR. In words: Transrepression Assay (GITAR), TNFα-β-lactamase reporter in U937 cells. It is filed as cell-based. Further details: U937 cells contain an endogenous glucocorticoid receptor (GR); endogenous in cells; host or cells: U937 cells stably transfected with the TNF-alpha promoter/beta-lactamase reporter. The conditions noted are these: for GITAR > GRAMM % SEP: GITAR Emax minus GRAMMER Emax; for EC50: U937 cells, inflection point, read-out: Transrepression U937 Cells GITAR IP. Put shortly: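 Read-out: CCF2-AM β-lactamase signal after 70–90 min loading at room temperature. U937 TNF-α-promoter reporter cells (endogenous GR), compound 30–45 min at 37 °C, then PMA 5 ng/ml + LPS 100 ng/ml final, ~18 hr. Normalised to 100 nM dexamethasone = 100%.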

Where [3] appears, read: U-937, U937 cells, maximum activity, read-out: Transrepression U937 Cells GITAR Emax.
[4] abbreviates: U-937, activity repressed by 100 nM dexamethasone alone set as 100%, read-out: maximal activity in the transrepression (GITAR) assay.

SMILES strings stand for the structures.

Turning to `CC(=O)Nc1ccc(S(=O)(=O)N(CCO)C[C@H]2CCC3=Cc4c(cnn4-c4ccc(F)cc4)C[C@@]32C)cc1` [Example 85, N-(4-{[{[(4αR,5S)-1-(4-fluorophenyl)-4α-methyl-1,4,4α,5,6,7-hexahydrocyclopenta[f]indazol-5-yl]methyl}(2-hydroxyethyl)amino]sulfonyl}phenyl)acetamide], the Emax at human GR [1] is 1.6%; on human GR [2] (setting [3]) it was 38.8%; on human GR [2] (setting [4]), > 5%. Further, the EC50 at human GR [1] stood at 73.7 nM; on human GR [2] it was 4230 nM. Besides, the “GITAR > GRAMM % SEP” value on human GR [2] was found to be 37.1%.

As for `C[C@]12Cc3cnn(-c4ccc(F)cc4)c3C=C1CC[C@@H]2CN(CCc1ccccc1F)S(=O)(=O)c1ccccc1F` [Example 86, 2-fluoro-N-[2-(2-fluorophenyl)ethyl]-N-{[(4αR,5S)-1-(4-fluorophenyl)-4α-methyl-1,4,4α,5,6,7-hexahydrocyclopenta[f]indazol-5-yl]methyl}benzenesulfonamide], the figures for the Emax on human GR [1], on human GR [2] (setting [3]) and on human GR [2] (setting [4]) were 68.2%, 80.6% and > 5%, respectively. Further, the EC50 at human GR [1] worked out at 68.6 nM; at human GR [2], 262 nM. For the same compound, the “GITAR > GRAMM % SEP” value at human GR [2] worked out at 12.4%.

Regarding `CCCS(=O)(=O)N(CCc1ccccc1F)C[C@H]1CCC2=Cc3c(cnn3-c3ccc(F)cc3)C[C@@]21C` [Example 87, N-[2-(2-fluorophenyl)ethyl]-N-{[(4αR,5S)-1-(4-fluorophenyl)-4α-methyl-1,4,4α,5,6,7-hexahydrocyclopenta[f]indazol-5-yl]methyl}propane-1-sulfonamide], the Emax is 65.1% at human GR [1], 85.1% on human GR [2] (setting [3]) and > 5% at human GR [2] (setting [4]). For the same compound, the EC50 at human GR [1] was 231 nM; on human GR [2], 212 nM. In addition, the “GITAR > GRAMM % SEP” value on human GR [2] is on record as 20.0%.

On to `C[C@]12Cc3cnn(-c4ccc(F)cc4)c3C=C1CC[C@@H]2CN(CCc1ccccc1F)S(=O)(=O)Cc1cccc(C(F)(F)F)c1` [Example 88, N-[2-(2-fluorophenyl)ethyl]-N-{[(4αR,5S)-1-(4-fluorophenyl)-4α-methyl-1,4,4α,5,6,7-hexahydrocyclopenta[f]indazol-5-yl]methyl}-1-[3-(trifluoromethyl)phenyl]methanesulfonamide], for which the Emax at human GR [1] is 25.3%; on human GR [2] (setting [3]) it was 57.7%; at human GR [2] (setting [4]), > 5%. The EC50 on human GR [1] is 618 nM; on human GR [2], 646 nM. Besides, the “GITAR > GRAMM % SEP” value at human GR [2] is 32.4%.

As for `C[C@]12Cc3cnn(-c4ccc(F)cc4)c3C=C1CC[C@@H]2CN(CCc1ccccc1F)S(=O)(=O)CC(F)(F)F` [Example 89, 2,2,2-trifluoro-N-[2-(2-fluorophenyl)ethyl]-N-{[(4αR,5S)-1-(4-fluorophenyl)-4α-methyl-1,4,4α,5,6,7-hexahydrocyclopenta[f]indazol-5-yl]methyl}ethanesulfonamide], the Emax at human GR [1] was 81.4%; on human GR [2] (setting [3]) it was 95.6%; on human GR [2] (setting [4]), > 5%. In addition, the EC50 is 119 nM at human GR [1] and 138 nM at human GR [2]. Moreover, the “GITAR > GRAMM % SEP” value at human GR [2] is 14.3%.

On to `COc1ccccc1CCN(C[C@H]1CCC2=Cc3c(cnn3-c3ccc(F)cc3)C[C@@]21C)S(=O)(=O)c1ccccc1F` [Example 90, 2-fluoro-N-{[(4αR,5S)-1-(4-fluorophenyl)-4α-methyl-1,4,4α,5,6,7-hexahydrocyclopenta[f]indazol-5-yl]methyl}-N-[2-(2-methoxyphenyl)ethyl]benzenesulfonamide], for which the figures for the Emax at human GR [1], on human GR [2] (setting [3]) and on human GR [2] (setting [4]) were 33.5%, 67.6% and > 5%, respectively. In addition, the EC50 turned out to be 354 nM on human GR [1] and 651 nM on human GR [2]. Further, on human GR [2], the “GITAR > GRAMM % SEP” value is on record as 34.0%.

With `Cc1ccc(CCN(C[C@H]2CCC3=Cc4c(cnn4-c4ccc(F)cc4)C[C@@]32C)S(=O)(=O)c2ccccc2F)cc1` [Example 91, 2-fluoro-N-{[(4αR,5S)-1-(4-fluorophenyl)-4α-methyl-1,4,4α,5,6,7-hexahydrocyclopenta[f]indazol-5-yl]methyl}-N-[2-(4-methylphenyl)ethyl]benzenesulfonamide], the Emax on human GR [1] was 10.7%; on human GR [2] (setting [3]) it was 61.5%; on human GR [2] (setting [4]) it was > 5%. For the same compound, the results for the EC50 at human GR [1] and on human GR [2] were 643 nM and 973 nM, respectively. Moreover, on human GR [2], the “GITAR > GRAMM % SEP” value is given as 50.8%.

Take `C[C@]12Cc3cnn(-c4ccc(F)cc4)c3C=C1CC[C@@H]2CN(CCc1ccccc1Cl)S(=O)(=O)c1ccccc1F` [Example 92, N-[2-(2-chlorophenyl)ethyl]-2-fluoro-N-{[(4αR,5S)-1-(4-fluorophenyl)-4α-methyl-1,4,4α,5,6,7-hexahydrocyclopenta[f]indazol-5-yl]methyl}benzenesulfonamide]: the Emax on human GR [1] was 41.6%; on human GR [2] (setting [3]) it was 68.5%; on human GR [2] (setting [4]), > 5%. Moreover, the EC50 is 504 nM on human GR [1] and 493 nM on human GR [2]. The “GITAR > GRAMM % SEP” value at human GR [2] was 26.9%.

In the case of `CC(C1CCC2=Cc3c(cnn3-c3ccc(F)cc3)C[C@@]21C)N(CCc1ccccc1F)S(=O)(=O)CC(F)(F)F` (stereo partly drawn) [Example 93, 2,2,2-trifluoro-N-[2-(2-fluorophenyl)ethyl]-N-{1-[(4αR)-1-(4-fluorophenyl)-4α-methyl-1,4,4α,5,6,7-hexahydrocyclopenta[f]indazol-5-yl]ethyl}ethanesulfonamide], the Emax is 50.9% at human GR [1], 71.8% at human GR [2] (setting [3]) and > 5% at human GR [2] (setting [4]). Further, the EC50 at human GR [1] amounted to 296 nM; at human GR [2] it was 231 nM. Further, the “GITAR > GRAMM % SEP” value at human GR [2] turned out to be 20.8%.

As to `COCCN(C[C@H]1CCC2=Cc3c(cnn3-c3ccc(F)cc3)C[C@@]21C)S(=O)(=O)c1ccccc1F` [Example 94, 2-fluoro-N-{[(4αR,5S)-1-(4-fluorophenyl)-4α-methyl-1,4,4α,5,6,7-hexahydrocyclopenta[f]indazol-5-yl]methyl}-N-(2-methoxyethyl)benzenesulfonamide], the Emax was 43.9% on human GR [1], 75.5% at human GR [2] (setting [3]) and > 5% at human GR [2] (setting [4]). Besides, the EC50 was found to be 423 nM at human GR [1] and 412 nM at human GR [2]. On human GR [2], the “GITAR > GRAMM % SEP” value came out at 31.6%.
